Data on 31 compounds can be found in patent US8796268B2, “Heteroaryls and uses thereof” (Millennium Pharmaceuticals, Inc., priority 2010, dated 2014).

Bounds are passed on as bounds.

For one experiment, the target named is T1, Human PI3K beta (Homo sapiens, UniProt P42338).
T1 construct: His (N); host or cells: SF9 insect cells (baculovirus)
In words: Human PI3K beta enzyme assay (HTRF). The experiment is classed as biochemical. The conditions noted are these: read-out: PI3 Kbeta IC50. The text has this: (§1) The catalytic subunits of PI3Ks are cloned into either pDEST8(p110 alpha) or pDEST10(p110beta, p110delta, and p110gamma) as N-terminal His tagged fusion proteins using the Gateway system (Invitrogen, catalog#11804-010 for pDEST8 and 11806-015 for pDEST10). The sequences are verified before recombinant protein expression using the Baculovirus Expression System with Gateway® Technology. The accession numbers for the subunits are as follows: • p110 alpha (GB:U79143) • p110beta (GB: S67334) • p110delta (GB: U86453) • p110gamma (GB: X83368) • The regulatory subunits of PI3Ks are cloned into pDEST8 as un-tagged protein using the Gateway system (Catalog#11804-010). The sequences are verified before recombinant protein expression using the Baculovirus Expression System with Gateway® Technology. The accession numbers for the subunits are as following: • p85 alpha (GB: BC030815) • p101(GB: AB028925) • VPS34 (accession number GB:BC033004) is cloned into pDEST20—Thombin as N-terminal GST tagged fusion proteins using the Gateway system (Invitrogen, catalog#11804-013). The sequences are verified before recombinant protein expression using the Baculovirus Expression System with Gateway® Technology.
(§2) For expression of the p110 complexes, the p85 (MOI of 4) is co-infected with p110 alpha, beta, and delta respectively (1MOI) in SF9 cells and harvested at 60 hours post co-infection. P110 gamma was infected at 1 MOI and harvested at 60 hours post infection.
(§3) For purification, PI3Ks are purified by Ni-NTA Agarose (Qiagen #30250) followed by Mono Q 10/100 GL (Ge Healthcare #17-5167-01). VPS34 is purified by Glutathione Sepharose 4 Fast Flow (GE Healthcare #17-5132-03) followed by HiTrap Q (GE Healthcare #17-1153-01).
(§4) 0.5 uL compounds in DMSO are added to wells of a 384 well microtitre plate (Corning 3575). At room temperature: 10 ul PI3K reaction buffer (50 mM Hepes, 5 mM DTT, 150 mM NaCl, 10 mM beta-glycerophosphate, 10 mM MgCl2, 0.25 mM sodium cholate and 0.001% CHAPS, pH 7.00) containing ATP (25 uM, Promega) is added followed immediately by 10 ul PI3K reaction buffer containing di-C8 P1(4,5)P2 (3.5 uM, CellSignals) and PI3Kalpha (0.4875 nM, Millennium Protein Sciences Group) and the mixture is incubated with shaking at room temperature for 30 minutes. Then 5 ul PI3K stop mix (50 mM Hepes, 5 mM DTT, 150 mM NaCl, 0.01% Tween-20, 15 mM EDTA and 25 nM biotin-PI(3,4,5)P3 (Echelon) is added to quench the reaction followed immediately by addition of 5 ul HTRF detection mix (50 mM Hepes, 5 mM DTT, 150 mM NaCl, 0.01% Tween-20, 40 mM KF, 1.0 nM GST:GRP-1 PH domain (Millennium Protein Sciences Group), 15 nM Streptavidin-XL (CisBio) and 0.375 nM anti-GST Eu++ antibody (CisBio) at pH 7.00). The plates are then incubated for 1 hour at room temperature with shaking and then read on a BMG PheraStar Plus reader.
2) Human PI3K beta, delta and gamma isoforms are tested using the procedure described for PI3K alpha above but with the following changes: PI3K beta (5.25 nM), PI3K delta (0.75 nM) and PI3K gamma (5 nM). All isoforms supplied by Millennium Protein Science Group.
(§5) For the assay methods described above, test compound percent inhibition, at various concentrations, is calculated relative to control (DMSO and EDTA) treated samples. Compound concentration versus percent inhibition curves are fitted to generate IC50 values. One skilled in the art will appreciate that the values generated either as percentage inhibition at a single concentration or IC50 values are subject to experimental variation.
(In TR-FRET formats the signal depends on donor and acceptor labels being close together.)

A further experiment addresses T2, Human PI3K alpha (Homo sapiens, UniProt P42336).
T2 construct: His (N); host or cells: SF9 insect cells (baculovirus)
As to the kind of experiment: Human PI3K alpha enzyme assay (HTRF). It counts as biochemical. The conditions noted are these: read-out: PI3Kalpha IC50.
Excerpt: as §1, §2, §3
1) Human PI3K alpha enzyme assay method
as §4, §5

Broadly, the IC50 is the concentration needed to halve the response being measured.

T1 sequence (P42338 whole entry): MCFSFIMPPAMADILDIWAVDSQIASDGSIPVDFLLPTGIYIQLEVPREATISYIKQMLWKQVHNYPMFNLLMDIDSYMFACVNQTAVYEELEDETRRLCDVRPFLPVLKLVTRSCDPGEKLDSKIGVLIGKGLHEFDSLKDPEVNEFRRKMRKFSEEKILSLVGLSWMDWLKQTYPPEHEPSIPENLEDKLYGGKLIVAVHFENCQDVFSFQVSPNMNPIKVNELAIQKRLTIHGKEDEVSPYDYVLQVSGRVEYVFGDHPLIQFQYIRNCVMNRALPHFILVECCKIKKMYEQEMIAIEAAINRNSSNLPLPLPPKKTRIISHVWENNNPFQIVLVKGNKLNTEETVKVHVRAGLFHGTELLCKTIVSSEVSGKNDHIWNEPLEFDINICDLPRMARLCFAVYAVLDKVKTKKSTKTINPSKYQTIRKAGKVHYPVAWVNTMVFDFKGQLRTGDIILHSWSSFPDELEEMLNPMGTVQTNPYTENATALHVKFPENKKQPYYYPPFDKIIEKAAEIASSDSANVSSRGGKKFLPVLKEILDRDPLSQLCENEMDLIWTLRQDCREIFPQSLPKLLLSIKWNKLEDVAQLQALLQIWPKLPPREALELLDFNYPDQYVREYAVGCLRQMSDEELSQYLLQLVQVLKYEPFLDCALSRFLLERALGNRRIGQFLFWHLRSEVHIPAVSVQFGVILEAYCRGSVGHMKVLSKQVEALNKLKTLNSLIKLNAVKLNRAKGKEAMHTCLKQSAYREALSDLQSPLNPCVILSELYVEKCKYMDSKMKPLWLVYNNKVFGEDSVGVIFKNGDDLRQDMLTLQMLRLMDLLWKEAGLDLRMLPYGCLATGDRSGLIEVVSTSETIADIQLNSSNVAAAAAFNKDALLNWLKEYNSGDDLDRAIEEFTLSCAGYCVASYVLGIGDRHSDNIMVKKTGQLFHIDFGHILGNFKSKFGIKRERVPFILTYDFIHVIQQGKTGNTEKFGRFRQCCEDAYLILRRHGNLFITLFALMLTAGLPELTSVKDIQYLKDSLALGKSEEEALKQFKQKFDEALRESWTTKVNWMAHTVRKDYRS
T1 sequence (P27986 whole entry partner): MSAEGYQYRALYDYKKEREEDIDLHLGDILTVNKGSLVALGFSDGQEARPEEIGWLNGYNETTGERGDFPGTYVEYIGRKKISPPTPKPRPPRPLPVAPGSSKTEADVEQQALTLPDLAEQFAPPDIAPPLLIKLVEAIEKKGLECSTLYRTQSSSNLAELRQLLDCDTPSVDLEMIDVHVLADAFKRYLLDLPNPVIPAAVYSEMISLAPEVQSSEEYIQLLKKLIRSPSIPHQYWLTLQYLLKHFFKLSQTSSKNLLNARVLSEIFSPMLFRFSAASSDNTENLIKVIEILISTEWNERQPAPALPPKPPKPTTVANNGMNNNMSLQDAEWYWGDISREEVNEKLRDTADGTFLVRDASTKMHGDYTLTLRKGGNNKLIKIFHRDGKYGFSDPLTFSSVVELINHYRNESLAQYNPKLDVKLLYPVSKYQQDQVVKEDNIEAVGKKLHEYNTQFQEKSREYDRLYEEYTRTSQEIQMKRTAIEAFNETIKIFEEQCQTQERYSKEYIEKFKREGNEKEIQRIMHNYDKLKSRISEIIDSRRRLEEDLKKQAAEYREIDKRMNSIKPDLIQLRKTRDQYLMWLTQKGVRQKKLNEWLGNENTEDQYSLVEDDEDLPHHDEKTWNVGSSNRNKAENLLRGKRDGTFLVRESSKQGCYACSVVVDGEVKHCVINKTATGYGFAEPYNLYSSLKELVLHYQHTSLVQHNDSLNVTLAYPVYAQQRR
T2 sequence (P42336 whole entry): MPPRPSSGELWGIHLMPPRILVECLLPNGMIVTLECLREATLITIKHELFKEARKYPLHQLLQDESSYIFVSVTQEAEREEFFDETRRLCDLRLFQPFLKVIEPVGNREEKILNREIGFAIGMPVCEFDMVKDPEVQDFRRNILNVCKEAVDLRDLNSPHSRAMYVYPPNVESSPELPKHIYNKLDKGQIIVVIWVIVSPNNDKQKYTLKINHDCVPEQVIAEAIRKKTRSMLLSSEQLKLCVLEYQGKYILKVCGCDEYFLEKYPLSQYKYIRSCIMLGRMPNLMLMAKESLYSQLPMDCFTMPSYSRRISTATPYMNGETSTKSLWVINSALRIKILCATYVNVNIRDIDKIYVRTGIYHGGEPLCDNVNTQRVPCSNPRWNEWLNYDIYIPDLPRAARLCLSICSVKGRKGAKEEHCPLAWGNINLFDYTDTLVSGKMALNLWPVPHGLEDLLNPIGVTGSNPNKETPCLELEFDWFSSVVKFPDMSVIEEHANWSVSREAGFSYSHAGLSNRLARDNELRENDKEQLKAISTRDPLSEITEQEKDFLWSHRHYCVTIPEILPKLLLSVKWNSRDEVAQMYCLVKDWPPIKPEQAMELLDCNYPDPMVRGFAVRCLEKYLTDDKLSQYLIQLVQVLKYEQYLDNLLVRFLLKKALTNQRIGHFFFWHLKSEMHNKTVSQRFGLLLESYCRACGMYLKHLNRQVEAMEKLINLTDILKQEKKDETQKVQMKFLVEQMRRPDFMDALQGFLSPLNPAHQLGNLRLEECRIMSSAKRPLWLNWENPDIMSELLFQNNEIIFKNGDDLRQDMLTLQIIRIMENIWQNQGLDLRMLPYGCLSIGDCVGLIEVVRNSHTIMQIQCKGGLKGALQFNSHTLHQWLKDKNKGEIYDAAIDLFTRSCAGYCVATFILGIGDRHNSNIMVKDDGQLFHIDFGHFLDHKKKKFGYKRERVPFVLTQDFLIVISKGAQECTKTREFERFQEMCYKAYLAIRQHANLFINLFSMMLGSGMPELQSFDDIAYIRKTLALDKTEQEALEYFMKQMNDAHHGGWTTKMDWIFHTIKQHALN
T2 sequence (P27986 whole entry partner): as the sequence (P27986 whole entry partner) above

On to `O[C@H](c1ccc(Cl)cc1)c1nc(-c2ccncc2)sc1-c1nnc[nH]1` (single isomer, unassigned) [Compound 19, (4-chlorophenyl)[2-pyridin-4-yl-5-(1H-1,2,4-triazol-3-yl)-1,3-thiazol-4-yl]methanol], for which the concentration for half-maximal inhibition (IC50) is under 0.1 µM on Human PI3K beta and over 1 µM on Human PI3K alpha.
As to `O[C@@H](c1ccc(Cl)cc1)c1cc(-c2ccnc(Cl)c2)sc1-c1nnc[nH]1` (single isomer, unassigned) [Compound 40], the IC50 at Human PI3K beta and on Human PI3K alpha was 0.1 to 1 µM in each case.
For the compound `Cc1cc(-c2cc([C@@H](O)c3ccc(Cl)cc3)c(-c3nnc[nH]3)s2)ccn1` (single isomer, unassigned) [Compound 69], the IC50 at Human PI3K beta is 0.1 to 1 µM; on Human PI3K alpha, over 1 µM.
For `O[C@@H](c1ccc(Cl)cc1)c1nc(-c2ccncc2)sc1-c1nnc[nH]1` (single isomer, unassigned) [Compound 70, (4-chlorophenyl)[2-pyridin-4-yl-5-(1H-1,2,4-triazol-3-yl)-1,3-thiazol-4-yl]methanol] the same measures were 0.1 to 1 µM and over 1 µM.
As for `Cc1nn2ccc(CN)cc2c1-c1nc(Cc2ccc(Cl)cc2)c(-c2nnc[nH]2)s1` [Compound 1, 1-{3-[4-(4-chlorobenzyl)-5-(4H-1,2,4-triazol-3-yl)-1,3-thiazol-2-yl]-2-methylpyrazolo[1,5-a]pyridin-5-yl}methanamine], the 50% inhibitory concentration (IC50) at Human PI3K beta and at Human PI3K alpha was 0.1 to 1 µM throughout.
With `CC(=O)Nc1cc(-c2nc(Cc3ccccc3)c(-c3ncc[nH]3)s2)ccn1` [Compound 2, N-{4-[4-benzyl-5-(1H-imidazol-2-yl)-1,3-thiazol-2-yl]pyridin-2-yl}acetamide], the half-inhibitory concentration (IC50) on Human PI3K beta and at Human PI3K alpha was over 1 µM throughout.
Turning to `N#Cc1cc(-c2cc([C@H](O)c3ccc(Cl)cc3)c(-c3nnc[nH]3)s2)ccn1` [Compound 3], the IC50 at Human PI3K beta was under 0.1 µM; at Human PI3K alpha, over 1 µM.
For `Cc1nn2ccccc2c1-c1nc(Cc2ccc(Cl)cc2)c(-c2nnc[nH]2)s1` [Compound 4, 3-[4-(4-chlorobenzyl)-5-(4H-1,2,4-triazol-3-yl)-1,3-thiazol-2-yl]-2-methylpyrazolo[1,5-a]pyridine] the same measures were 0.1 to 1 µM and 0.1 to 1 µM.
Take `Clc1ccc(Cc2cc(-c3ccncc3)sc2-c2nnc[nH]2)cc1` [Compound 5, 4-[4-(4-chlorobenzyl)-5-(4H-1,2,4-triazol-3-yl)-2-thienyl]pyridine]: the 50% inhibitory concentration (IC50) is under 0.1 µM at Human PI3K beta and over 1 µM at Human PI3K alpha.
Taken in the same sequence, the figures for `COC(c1ccc(Cl)cc1)c1cc(-c2ccncc2)sc1-c1nnc[nH]1` (centres unmarked) [Compound 6, 4-[4-[(4-chlorophenyl)(methoxy)methyl]-5-(4H-1,2,4-triazol-3-yl)-2-thienyl]pyridine] were 0.1 to 1 µM and over 1 µM.
For `Clc1ccc(Cc2nc(-c3ccncc3)sc2-c2nnc[nH]2)cc1Cl` [Compound 7] the same measures were under 0.1 µM and over 1 µM.
With `OCc1cc(-c2cc(C(O)c3ccc(Cl)cc3)c(-c3nnc[nH]3)s2)ccn1` (centres unmarked) [Compound 8], the half-maximal inhibitory concentration (IC50) on Human PI3K beta is 0.1 to 1 µM; on Human PI3K alpha, over 1 µM.
Consider `CN(C)C(c1ccc(Cl)cc1)c1cc(-c2ccncc2)sc1-c1nnc[nH]1` (centres unmarked) [Compound 9, 1-(4-chlorophenyl)-N,N-dimethyl-1-[5-pyridin-4-yl-2-(4H-1,2,4-triazol-3-yl)-3-thienyl]methanamine], for which the IC50 at Human PI3K beta is under 0.1 µM; on Human PI3K alpha, over 1 µM.
`OC(c1ccc(Cl)cc1)c1cc(-c2ccnc3[nH]ccc23)sc1-c1nnc[nH]1` (centres unmarked) [Compound 10]: the concentration for half-maximal inhibition (IC50) on Human PI3K beta and at Human PI3K alpha was 0.1 to 1 µM in each case.
On to `Cc1cc(-c2cc(C(O)c3ccc(Cl)cc3)c(-c3nnc[nH]3)s2)ccn1` (centres unmarked) [Compound 11], for which the IC50 at Human PI3K beta is under 0.1 µM; at Human PI3K alpha, over 1 µM.
Consider `N#Cc1c(-c2ccnc(N)c2)sc(-c2nnc[nH]2)c1Cc1ccc(Cl)cc1` [Compound 12, 2-(2-aminopyridin-4-yl)-4-(4-chlorobenzyl)-5-(4H-1,2,4-triazol-3-yl)thiophene-3-carbonitrile], for which the IC50 was 0.1 to 1 µM on Human PI3K beta and over 1 µM on Human PI3K alpha.
As to `OC(c1ccc(Cl)cc1)c1cc(-c2ccnc3ccsc23)sc1-c1nnc[nH]1` (centres unmarked) [Compound 13], the 50% inhibitory concentration (IC50) on Human PI3K beta and at Human PI3K alpha was under 0.1 µM each time.
With `OC(c1ccc(Cl)cc1)c1cc(-c2ccnc(Cl)c2)sc1-c1nnc[nH]1` (centres unmarked) [Compound 14], the values for the IC50 at Human PI3K beta and at Human PI3K alpha were under 0.1 µM and 0.1 to 1 µM, respectively.
`Clc1ccc(Cc2nc(-c3ccncc3)sc2-c2ncc[nH]2)cc1` [Compound 15, 4-(4-chlorobenzyl)-5-(1H-imidazol-2-yl)-2-(pyridin-4-yl)thiazole]: the IC50 at Human PI3K beta was 0.1 to 1 µM; on Human PI3K alpha, over 1 µM.
Take `OC(c1ccc(Cl)cc1)c1cc(-c2ccncc2F)sc1-c1nnc[nH]1` (centres unmarked) [Compound 16]: the half-maximal inhibitory concentration (IC50) was under 0.1 µM on Human PI3K beta and over 1 µM on Human PI3K alpha.
For `COc1cc(-c2cc(C(O)c3ccc(Cl)cc3)c(-c3nnc[nH]3)s2)ccn1` (centres unmarked) [Compound 17], the figures for the IC50 at Human PI3K beta and at Human PI3K alpha were 0.1 to 1 µM and over 1 µM, respectively.
For `Cc1cc(-c2nc(Cc3ccc(Cl)cc3)c(-c3nc[nH]n3)s2)ccn1` [Compound 18, 4-(4-Chlorobenzyl)-2-(2-methylpyridin-4-yl)-5-(4H-1,2,4-triazol-3-yl)thiazole] the same measures were over 1 µM and over 1 µM.
`COc1ccc(CNCc2ccn3nc(C)c(-c4nc(Cc5ccc(Cl)cc5)c(-c5nnc[nH]5)s4)c3c2)c(OC)c1` [Compound 20]: the figures for the IC50 at Human PI3K beta and at Human PI3K alpha were under 0.1 µM and 0.1 to 1 µM, respectively.
Consider `OC(c1ccc(Cl)cc1)c1cc(-c2ccnc(F)c2)sc1-c1nnc[nH]1` (centres unmarked) [Compound 21, (4-chlorophenyl)[5-(2-fluoropyridin-4-yl)-2-(4H-1,2,4-triazol-3-yl)-3-thienyl]methanol], for which the values for the IC50 on Human PI3K beta and at Human PI3K alpha were under 0.1 µM and over 1 µM, respectively.
Turning to `Clc1ccc(Cc2nc(-c3ccncc3)sc2-c2ccc[nH]2)cc1` [Compound 22, 4-(4-chlorobenzyl)-2-(pyridin-4-yl)-5-(1H-pyrrol-2-yl)thiazole], the half-inhibitory concentration (IC50) at Human PI3K beta and at Human PI3K alpha was over 1 µM in each case.
For the compound `Nc1nccc(-c2cc(C(O)c3ccc(Cl)cc3)c(-c3nnc[nH]3)s2)n1` (centres unmarked) [Compound 23], the IC50 was 0.1 to 1 µM at Human PI3K beta and over 1 µM on Human PI3K alpha.
`CC(=O)Nc1cc(-c2nc(Cc3ccc(C)cc3)c(-c3ncc[nH]3)s2)ccn1` [Compound 24]: the IC50 on Human PI3K beta was over 1 µM; at Human PI3K alpha it was 0.1 to 1 µM.
Consider `OC(c1ccc(Cl)cc1)c1cc(-c2ccncc2Cl)sc1-c1nc[nH]n1` (centres unmarked) [Compound 25], for which the IC50 on Human PI3K beta is 0.1 to 1 µM; on Human PI3K alpha, over 1 µM.
As for `O[C@@H](c1ccc(Cl)cc1)c1cc(-c2ccnc(F)c2)sc1-c1nnc[nH]1` [Compound 26], the IC50 is 0.1 to 1 µM on Human PI3K beta and over 1 µM on Human PI3K alpha.
As to `Nc1cc(-c2nc(Cc3ccc(Cl)cc3)c(-c3ncn[nH]3)s2)ccn1` [Compound 27], the IC50 on Human PI3K beta was 0.1 to 1 µM; at Human PI3K alpha, over 1 µM.
Taken in the same sequence, the figures for `OC(c1ccc(Cl)cc1)c1cc(-c2ccnc(-n3ccnc3)c2)sc1-c1nnc[nH]1` (centres unmarked) [Compound 28] were 0.1 to 1 µM and 0.1 to 1 µM.
